From article PMC3840712, “Enzymatic properties of Thermoanaerobacterium thermosaccharolyticum β-glucosidase fused to Clostridium cellulovorans cellulose binding domain and its application in hydrolysis of microcrystalline cellulose” (BMC Biotechnology, 2013)

Experiments:
BGL [1] = target: T1, BGL (Thermoanaerobacterium thermosaccharolyticum, UniProt D9TR57); assay: initial rates, pNP release at […] nm; type: biochemical; details: 50 mM citrate pH 6.0, 65°C
T1 construct: gene Tthe_1813
T1 sequence (D9TR57 1-444): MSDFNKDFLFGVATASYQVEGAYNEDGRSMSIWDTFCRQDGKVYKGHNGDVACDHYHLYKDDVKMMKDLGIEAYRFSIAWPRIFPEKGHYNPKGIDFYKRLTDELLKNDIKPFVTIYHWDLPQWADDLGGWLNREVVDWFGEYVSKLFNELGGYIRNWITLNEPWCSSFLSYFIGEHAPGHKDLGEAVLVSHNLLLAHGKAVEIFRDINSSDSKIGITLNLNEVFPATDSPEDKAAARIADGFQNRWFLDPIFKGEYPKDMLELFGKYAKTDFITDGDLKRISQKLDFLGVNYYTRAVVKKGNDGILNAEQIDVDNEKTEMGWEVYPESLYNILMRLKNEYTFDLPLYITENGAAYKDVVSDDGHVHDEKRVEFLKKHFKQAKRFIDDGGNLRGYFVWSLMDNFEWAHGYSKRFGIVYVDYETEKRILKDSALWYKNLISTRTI

BGL-CBD [2] = test system: T2, BGL-CBD; assay: initial rates, pNP release at […] nm; type: biochemical, Thermoanaerobacterium thermosaccharolyticum; details: 50 mM citrate pH 6.0, 65°C
T2 construct: one polypeptide: BGL - PPP linker - C. cellulovorans CBD, pET-20b (NdeI/BamHI/XhoI; pET-BGL-Linker-CBD), Ni-NTA purified, E. coli JM109(DE3), about 69 kDa

BGL [3] = target: T1, BGL; assay: initial rates, cellobiose hydrolysis; type: biochemical; details: 50 mM citrate pH 6.0, 65°C
BGL-CBD [4] = test system: T2, BGL-CBD; assay: initial rates, cellobiose hydrolysis; type: biochemical, Thermoanaerobacterium thermosaccharolyticum; details: 50 mM citrate pH 6.0, 65°C
Excerpt: initial rates, cellobiose hydrolysis on BGL-CBD

BGL [5] = target: T1, BGL; assay: pNP release at […] nm, […] inhibition; type: biochemical; details: pNPG as substrate, 50 mM citrate pH 6.0, 65°C; K i defined as glucose giving 50% inhibition

O=[N+]([O-])c1ccc(O[C@@H]2O[C@H](CO)[C@@H](O)[C@H](O)[C@H]2O)cc1 [p-nitrophenyl-β-D-glucopyranoside]
Km (BGL [1]): 620 µM
Km (BGL-CBD [2]): 250 µM

OC[C@H]1O[C@@H](O[C@H]2[C@H](O)[C@@H](O)C(O)O[C@@H]2CO)[C@H](O)[C@@H](O)[C@@H]1O (some centres unmarked) [cellobiose]
Km (BGL [3]): 7900 µM
Km (BGL-CBD [4]): 2620 µM

OC[C@H]1OC(O)[C@H](O)[C@@H](O)[C@@H]1O (some centres unmarked) [glucose]
K i (BGL [5]): The BGL-CBD yielded approximately two times higher K i values for glucose than the BGL
